Reference: PMC4339527 (Bioorganic & medicinal chemistry, 2015)
Where two headings read alike, the source gives them in different places.

Assays:
P. aeruginosa T3SS [1] = target: T1, P. aeruginosa T3SS (Pseudomonas aeruginosa, UniProt P95434); experiment: T3SS-mediated secretion assay; format: cell-based; settings: for potency increase in the β-lactamase secretion assay over the unoptimized compound: 37a vs 34o, 37b vs 34r
P. aeruginosa T3SS [2] = target: T1, P. aeruginosa T3SS; format: cell-based; settings: for IC50: read-out: translocation IC50, CHO cells + P. aeruginosa PA99U, LDH release
P. aeruginosa T3SS [3] = settings: read-out: translocation IC50; activity in translocation assays; cited from earlier work

Row | Molecule | potency increase in the β-lactamase secretion assay over the unoptimized compound (P. aeruginosa T3SS [1]) | IC50 (P. aeruginosa T3SS [2]) | other results
1 | CC[C@@H](Oc1ncc(Cl)cc1Cl)C(=O)NCc1ccc2sccc2c1 [Compound 37a, (R)-N-[(Benzothiophene-5-yl)methyl]-2-[(3,5-dichloropyridin-2-yl)oxy]butanamide] | 6 fold |  | 
2 | CC[C@@H](Oc1ncc(Cl)cc1Cl)C(=O)NCc1ccc2[nH]ccc2c1 [Compound 37b, (R)-N-[(Indol-5-yl)methyl]-2-[(3,5-dichloropyridin-2-yl)oxy]butanamide] | 2.6 fold |  | improvement in the translocation assay over the unoptimized compound (P. aeruginosa T3SS [2]; 37b vs 34r): 2.5 fold
3 | O=C(NN=Cc1cc(Br)cc(Br)c1O)c1ccc([N+](=O)[O-])cc1 [INP-007] |  |  | IC50 (P. aeruginosa T3SS [3]): 0.8 µM
4 | N-(Benzothiophene-5-yl)-2-(2,4-dichlorophenoxy)propanamide [Compound 34o] |  | 5.3 ± 3.7 µM | IC50 (P. aeruginosa T3SS [1]; read-out: secretion IC50): 6 ± 1.6 µM
5 | N-[(Benzimidazol-5-ylmethyl])-2-(2,4-dichlorophenoxy)propanamide [Compound 34q] |  | 33 ± 8 µM | 
